According to patent publication US20120141586A1, “THROMBIN RECEPTOR ANTAGONIST AND CLOPIDOGREL FIXED DOSE TABLET” (priority 2009, published 2012):
“Also recorded” adds a separate entry of the source.

Columns and labels:
thrombin receptor = target: T1, thrombin receptor (Homo sapiens, UniProt P25116); settings: cited from earlier work
T1 sequence (P25116 22-425): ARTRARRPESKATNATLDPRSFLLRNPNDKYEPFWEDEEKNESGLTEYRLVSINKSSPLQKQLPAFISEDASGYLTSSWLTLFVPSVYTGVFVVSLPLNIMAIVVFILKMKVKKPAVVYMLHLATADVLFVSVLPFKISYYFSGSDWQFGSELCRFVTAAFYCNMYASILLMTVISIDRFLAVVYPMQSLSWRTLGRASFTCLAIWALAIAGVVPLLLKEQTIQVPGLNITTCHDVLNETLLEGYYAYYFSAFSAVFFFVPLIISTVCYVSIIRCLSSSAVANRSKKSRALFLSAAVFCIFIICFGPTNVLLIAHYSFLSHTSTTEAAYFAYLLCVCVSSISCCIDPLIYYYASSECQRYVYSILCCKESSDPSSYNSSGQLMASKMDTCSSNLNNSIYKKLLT

[1] = forced degradation data generated at Dr. Reddy's Lab; cited from earlier work
[2] = Compatibility studies between clopidogrel premix and 530348 bisulfate / free base
Text: b. […] Clopidogrel is known to degrade under acidic and alkaline conditions. […] To test this hypothesis, the above studies were repeated in the presence of 530348 free base.

SMILES | Selectivity (thrombin receptor) | Thrombin receptor antagonist activity (potency) (thrombin receptor) | Susceptibility of clopidogrel to degradation [1] | Extent of clopidogrel degradation ([2]; bisulfate salt compared to 530348 free base (FIG. 2)) | Clopidogrel degradation ([2]; in the presence of 530348 bisulfate)
CCOC(=O)N[C@@H]1CC[C@@H]2[C@@H](C1)C[C@H]1C(=O)O[C@H](C)[C@H]1[C@H]2/C=C/c1ccc(-c2cccc(F)c2)cn1 [SCH 530348 bisulfate] | good | good | – | – | –
CCOC(=O)N[C@@H]1CC[C@@H]2[C@@H](C1)C[C@H]1C(=O)O[C@H](C)[C@H]1[C@H]2/C=C/c1ccc(-c2cccc(F)c2)cn1 [SCH 530348, ethyl[(1R,3aR,4aR,6R,8aR,9S,9aS)-9-[(E)-2-[5-(3-fluorophenyl)-2-pyridinyl]ethenyl]dodecahydro-1-methyl-3-oxonaphtho[2,3-c]furan-6-yl]carbamate] | good | good | – | – | –
COC(=O)[C@H](c1ccccc1Cl)N1CCc2sccc2C1 [clopidogrel] | – | – | susceptible to degradation upon exposure to heat, humidity, and oxygen | greater in the presence of the bisulfate salt | significant degradation; also recorded: degrades
